In patent publication US12310967B2, “Compositions and methods of treatment for neurological disorders comprising motor neuron diseases” (Gliapharm SA, priority 2017, dated 2025):
Read-outs that look alike come from different tables or passages of the source.

Tests used:
primary astrocytes [1] = test: High throughput screening (HTS) for lactate secretion: acidification of extracellular medium (SNARF5); type: cell-based, mouse; set-up: key to Score / HTS Score (SNARF5) / Score_SNARF: fraction of plate positive-control activity (1 = 100%); details: for Score / Score_SNARF: Appendix I; for Score: CDC54K primary screening, relative to CCCP 2 uM; for Score / HTS Score (SNARF5): 10 uM, 90 min; for Score_SNARF: primary screening confirmation (SNARF5); for HTS Score (SNARF5): CDC54K library, relative to positive control CCCP 2 uM
Method in brief: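 Mouse primary cortical astrocytes (DIV17) exposed to compounds at 10 uM final (1% DMSO) for 90 min in low-bicarbonate medium with SNARF-5F. Extracellular pH from 630/580 nm emission ratio (ex 480 nm); hits scored as % of CCCP 2 uM positive control, duplicate plates.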

primary astrocytes [2] = test: Extracellular lactate quantification; type: cell-based, mouse; details: for Score_LACTATE: Appendix I, secondary screening: extracellular lactate; for EC50: Mus musculus, Astrocyte
Method in brief: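 Astrocytes were stimulated 90 min at 37 °C in D5030 medium with 5 mM glucose and 44 mM bicarbonate, with compound at 0-100 μM. Extracellular lactate was measured enzymatically with LDH/NAD in glycine-semicarbazide buffer, pH 10, for 1 h at 37 °C. NADH fluorescence (340/450 nm) was converted to lactate using an L-lactate standard curve.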

[3] = 1.5 h, CDC54K hits, 0-100 uM, 90 min, read-out: Lactate EC50

EC50 (primary astrocytes [2]; [3]) | EC50 (primary astrocytes [2]; Appendix II, lactate secretion, read-out: EC50) | Structure (SMILES) | Score (primary astrocytes [1]) | Score_SNARF (primary astrocytes [1]) | HTS Score (SNARF5) (primary astrocytes [1]) | Score_LACTATE (primary astrocytes [2]) | Score Lact. (primary astrocytes [2]; Appendix II, CDC54K library)
8.8 µM |  | CCc1ccc(S(=O)(=O)Nc2ccc3[nH]ncc3c2)cc1 [T5599014] | 0.5424 | 0.5778 | 0.542 | 0.4419 | 
10 µM |  | CCc1ccc(S(=O)(=O)N2CCSC2c2ccc(OC)c(OC)c2)cc1 (stereo not shown) [T5463586] | 0.7707 | 0.5553 | 0.77 | 0.3936 | 
11.5 µM |  | Cc1nc2ccc(NS(=O)(=O)c3cccc(F)c3)cc2s1 [T6937001] | 0.8094 | 0.8557 | 0.809 | 0.9088 | 
11 µM |  | COc1cc(C)c(Cl)cc1S(=O)(=O)NCc1ccncc1 [T5580243] | 0.8528 | 0.8565 | 0.853 | 0.7229 | 
7.9 µM |  | O=C1CCCN1c1ccc(S(=O)(=O)Nc2cccc(/C=C/c3ccccn3)c2)cc1 [T5644989] | 0.6796 | 0.8385 | 0.68 | 0.7859 | 

The next lines start with the compound.

Structure (SMILES) | EC50 (primary astrocytes [2]; [3]) | EC50 (primary astrocytes [2]; Appendix II, lactate secretion, read-out: EC50) | Score (primary astrocytes [1]) | Score_SNARF (primary astrocytes [1]) | HTS Score (SNARF5) (primary astrocytes [1]) | Score_LACTATE (primary astrocytes [2]) | Score Lact. (primary astrocytes [2]; Appendix II, CDC54K library)
CCn1nccc1-c1csc(S(=O)(=O)Nc2ccc(Cl)cc2F)c1 [L924-1031] | 25.3 µM |  | 0.9286 | 0.8713 | 0.929 | 1.632 | 
Cc1ccccc1NC(=O)C1CCCN(c2ncnc3oc(C)c(C)c23)C1 (stereo not shown) [F228-0422] | 0.5 µM |  | 1.057 | 0.7702 | 1.058 | 0.6364 | 
N#Cc1ccc(C(=O)N2CCC(Nc3ncnc4c3CCC4)C2)cc1 (stereo not shown) [T636-2387] | 11.5 µM | 6.83 µM |  | 0.4809 | 0.445 | 0.3005 | 0.30
CCc1nc(-c2csc(S(=O)(=O)NCc3ccc4c(c3)OCO4)c2)no1 [L287-0468] | 7.9 µM |  | 0.5971 | 0.6592 | 0.597 | 0.6179 | 
c1ccc2c(c1)CCN(c1ncnc3sccc13)C2 [T0517-8250] |  |  |  | 0.9124 |  | 0.9269 | 
CSc1cccc(NS(=O)(=O)c2ccc3onc(C(=O)N4CCCC4)c3c2)c1 [L995-0125] | 2 µM |  | 0.8545 | 0.8016 | 0.854 | 0.9122 | 
CC(=O)N1CCc2sc(S(=O)(=O)N3CCN(c4ccccc4C)CC3)cc2C1 [P025-0159] | 8.7 µM |  | 0.9535 | 0.8007 | 0.953 | 0.9232 | 
